Test systems include ACHN; CAKI-1; DMS-114; HCT-15; HT-29; KM12; M14; Malme-3M; NCI-H460; OVCAR-8; SR; TK-10; UACC-62; OVCAR-3; SNB-19; DU-145; Hs-578T; MCF7; MDA-MB-435; T47D.
Holding throughout (assay): growth of human tumour cells (NCI), 48 h

The results in this text go back to ChEMBL document CHEMBL1201862, “PubChem BioAssay data set” (2004).

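Growth conditions: 96-well plates. Treatment: test compound, 48 hours, 5 concentrations. Analysis: linear interpolation between bracketing concentrations; unreached endpoints set to highest concentration. Abbreviation: GI50, concentration required for 50% inhibition of growth.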 Active and inactive are the calls of the source. Rule as the data show it: active = GI50 up to about 1.1 µM and inactive = higher. Non-standard residues stand in square brackets, D forms with d. Residues, ends and D or L forms follow the SMILES beside them. ΔPro = O=C(O)[CH]1C=CCN1

As for `O=C(N/N=C(/c1nc2ccc([N+](=O)[O-])cc2[nH]c1=O)C(O)c1ccc([N+](=O)[O-])cc1)c1ccncc1` (stereo not drawn), the GI50 in the assay with ACHN was 39.7 µM (inactive); in the assay on CAKI-1, 42 µM (inactive); in the assay with DMS-114, 13.4 µM (inactive); in the assay with HCT-15, 23.1 µM; with HT-29 it was > 100 µM (inactive); in the assay on KM12 it was 59 µM (inactive). For the same compound, the GI50 is 45.9 µM (inactive) in the assay on M14; > 100 µM (inactive) in the assay on Malme-3M; > 100 µM (inactive) in the assay on NCI-H460; > 100 µM (inactive) in the assay with OVCAR-8; > 100 µM (inactive) with SR; > 100 µM (inactive) with TK-10. Further, in the assay on UACC-62, the GI50 is > 100 µM (inactive).
As to `N=C1SCCS1`, the GI50 in the assay on ACHN is > 100 µM (inactive); with CAKI-1 it was > 100 µM (inactive); with DMS-114, > 100 µM (inactive); in the assay on HCT-15 it was greater than 100 µM; with HT-29, > 100 µM (inactive); in the assay with KM12 it was > 100 µM (inactive). Also, the GI50 in the assay on M14, in the assay on Malme-3M, in the assay with NCI-H460, with OVCAR-3, in the assay with OVCAR-8 and with SNB-19 was > 100 µM (inactive) in each case. Further, the GI50 in the assay on TK-10 and with UACC-62 was > 100 µM (inactive) in each case.
`CO[C@@H]1C=C[C@@]23c4cc5c(cc4C(=O)O[C@H]2CN(C)[C@H]3C1)OCO5`: the GI50 in the assay with ACHN, in the assay with DMS-114, in the assay with HT-29, in the assay with KM12, with M14 and in the assay on NCI-H460 was > 100 µM (inactive) each time. For the same compound, the GI50 in the assay with OVCAR-3, in the assay with OVCAR-8, in the assay with SNB-19, with SR, in the assay on TK-10 and in the assay on UACC-62 was > 100 µM (inactive) each time.
`C=C(Br)C(C)(Br)CCC(Br)C(C)(C)Br` (stereo not drawn): the GI50 was 57.7 µM (inactive) with ACHN; > 100 µM (inactive) with CAKI-1; 17.2 µM (inactive) with DMS-114; 34.8 µM in the assay on HCT-15; 38.8 µM (inactive) with HT-29; 40.1 µM (inactive) in the assay with KM12. In addition, the GI50 in the assay with M14 is 23.7 µM (inactive); with Malme-3M it was 28.1 µM (inactive); in the assay with NCI-H460, 33.7 µM (inactive); in the assay with OVCAR-8 it was 17.5 µM (inactive); in the assay with SR, 13.4 µM (inactive); with TK-10 it was 46.3 µM (inactive). The GI50 in the assay on UACC-62 was 21 µM (inactive).
As for `O=C1/C(=C\c2ccccc2)c2ccccc2N1/N=C\c1ccccc1`, the GI50 in the assay on ACHN was > 100 µM (inactive); in the assay on CAKI-1 it was > 100 µM (inactive); in the assay on DMS-114, > 100 µM (inactive); in the assay on HCT-15 it was 43.9 µM; in the assay with HT-29, 25.1 µM (inactive); with KM12, 49.1 µM (inactive). In addition, the GI50 is > 100 µM (inactive) with M14; > 100 µM (inactive) in the assay with Malme-3M; > 100 µM (inactive) in the assay on NCI-H460; 91.8 µM (inactive) with OVCAR-3; > 100 µM (inactive) in the assay on OVCAR-8; > 100 µM (inactive) with SNB-19. The GI50 in the assay with TK-10 was > 100 µM (inactive); with UACC-62, 90.4 µM (inactive).
With `C[N+](C)(C)CC(=O)N/N=C(/Cc1nc2ccc(Cl)cc2nc1O)C1=NS(=O)(=O)c2cc(S(N)(=O)=O)c(Cl)cc2N1`, the GI50 in the assay with ACHN, in the assay with DMS-114, with HT-29, in the assay on KM12, in the assay with Malme-3M and with NCI-H460 was > 100 µM (inactive) in each case. Besides, the GI50 in the assay with OVCAR-3, in the assay on OVCAR-8, in the assay on SNB-19, in the assay on SR, in the assay on TK-10 and with UACC-62 was > 100 µM (inactive) each time.
Turning to `COc1ccccc1/C=C(\NC(=O)c1ccccc1)c1nc2ccc(Cl)cc2[nH]1`, the GI50 in the assay with ACHN is 21.5 µM (inactive); with CAKI-1, 21.4 µM (inactive); in the assay with DMS-114 it was 17.2 µM (inactive); in the assay with HCT-15, 30.3 µM; in the assay on HT-29, 30.8 µM (inactive); in the assay on KM12, 23.7 µM (inactive). The GI50 was 34.9 µM (inactive) in the assay with M14; 47.8 µM (inactive) in the assay with Malme-3M; 33.8 µM (inactive) in the assay with NCI-H460; 18.5 µM (inactive) with OVCAR-3; 22.8 µM (inactive) with OVCAR-8; 29.5 µM (inactive) in the assay with SNB-19. Also, the values for the GI50 in the assay with TK-10 and with UACC-62 were 29.2 µM (inactive) and 17.5 µM (inactive), respectively.
Regarding `CCOc1ccccc1NC(=O)C(=O)C(C(=O)c1ccc2ccccc2c1)C1OC(=O)c2ccccc21` (stereo not drawn), the GI50 is 29.2 µM (inactive) with ACHN; 10.4 µM (inactive) in the assay with CAKI-1; 9.62 µM (inactive) in the assay with DMS-114; 14.2 µM in the assay with HCT-15; 28.6 µM (inactive) with HT-29; 20.8 µM (inactive) in the assay with KM12. The GI50 was 15.9 µM (inactive) in the assay with M14; 14.3 µM (inactive) in the assay on Malme-3M; 6.68 µM (inactive) in the assay on NCI-H460; 12.7 µM (inactive) in the assay on OVCAR-3; 8.49 µM (inactive) in the assay on OVCAR-8; 4.53 µM (inactive) in the assay with SNB-19. For the same compound, the GI50 in the assay on TK-10 was 24.4 µM (inactive); with UACC-62, 8.77 µM (inactive).
Turning to `CC1=CCN(c2ccccn2)OC1c1ccccc1` (stereo not drawn), the GI50 in the assay on ACHN was > 100 µM (inactive); in the assay on CAKI-1, > 100 µM (inactive); in the assay with DMS-114, > 100 µM (inactive); in the assay on HCT-15 it was greater than 100 µM; in the assay with HT-29 it was > 100 µM (inactive); in the assay with KM12, > 100 µM (inactive). Further, the GI50 with M14, in the assay with Malme-3M, in the assay on NCI-H460, in the assay on OVCAR-3, in the assay on OVCAR-8 and with SNB-19 was > 100 µM (inactive) throughout. The values for the GI50 with SR and in the assay with UACC-62 were 59.3 µM (inactive) and > 100 µM (inactive), respectively.
As to `CC1(C)COC(C23C4C5C2C2C3C4C52I)=N1` (stereo not drawn), the GI50 in the assay with ACHN was > 100 µM (inactive); with CAKI-1, 50.4 µM (inactive); with DMS-114, > 100 µM (inactive); in the assay on HCT-15 it was greater than 100 µM; in the assay with HT-29, > 100 µM (inactive); in the assay on M14, > 100 µM (inactive). Further, the GI50 with Malme-3M, in the assay with NCI-H460, in the assay with OVCAR-3, with OVCAR-8, in the assay on SNB-19 and in the assay on TK-10 was > 100 µM (inactive) throughout. For the same compound, the GI50 with UACC-62 was > 100 µM (inactive).
Consider `CCOC(=O)C1C(=O)c2cccc(OC)c2C2COC(=O)N12` (stereo not drawn), for which the GI50 was > 100 µM (inactive) in the assay with ACHN; > 100 µM (inactive) with DMS-114; greater than 100 µM in the assay on HCT-15; > 100 µM (inactive) in the assay on HT-29; > 100 µM (inactive) in the assay with KM12; > 100 µM (inactive) in the assay with M14. Further, the GI50 in the assay on Malme-3M, in the assay on NCI-H460, with OVCAR-3, with OVCAR-8, in the assay on SNB-19 and in the assay with SR was > 100 µM (inactive) each time. Besides, the GI50 with TK-10 and in the assay on UACC-62 was > 100 µM (inactive) each time.
In the case of `c1ccc(SC(CCCCC(Sc2ccccc2)Sc2ccccc2)Sc2ccccc2)cc1`, the GI50 in the assay on ACHN was > 100 µM (inactive); in the assay on CAKI-1, > 100 µM (inactive); in the assay with DMS-114, > 100 µM (inactive); in the assay on HCT-15, greater than 100 µM; in the assay with KM12, > 100 µM (inactive); in the assay with M14 it was > 100 µM (inactive). The GI50 with NCI-H460, in the assay on OVCAR-3, in the assay on OVCAR-8, in the assay on SNB-19, in the assay on SR and with TK-10 was > 100 µM (inactive) in each case. In addition, the GI50 in the assay with UACC-62 is > 100 µM (inactive).
Consider `O=C(O)C1C=CCN1C(=O)C1C=CCN1C(=O)C1C=CCN1` (stereo not drawn) (H-[ΔPro]-[ΔPro]-[ΔPro]-OH; configuration not given here), for which the GI50 with ACHN is > 100 µM (inactive); in the assay on CAKI-1, > 100 µM (inactive); with DU-145, > 100 µM (inactive); in the assay with HCT-15, greater than 100 µM; in the assay on HT-29, > 100 µM (inactive); with Hs-578T it was > 100 µM (inactive). In addition, the GI50 in the assay with KM12, in the assay on M14, with MCF7, with MDA-MB-435, in the assay on Malme-3M and with NCI-H460 was > 100 µM (inactive) in each case. The GI50 in the assay with OVCAR-3 is > 100 µM (inactive); in the assay on OVCAR-8, > 100 µM (inactive); in the assay with SNB-19, > 100 µM (inactive); in the assay with SR, > 100 µM (inactive); in the assay with T47D, > 100 µM (inactive); in the assay with TK-10, 30.1 µM (inactive). The GI50 in the assay on UACC-62 is > 100 µM (inactive).
For `O=C(CCCCCCC(=O)Nc1cccnc1)NO` [PYROXAMIDE], the GI50 was 15.7 µM (inactive) in the assay with ACHN; 16.6 µM (inactive) in the assay with CAKI-1; 3.71 µM (inactive) in the assay on DU-145; 34.4 µM in the assay on HCT-15; 3.14 µM (inactive) in the assay on HT-29; 5.15 µM (inactive) in the assay on Hs-578T. In addition, the GI50 in the assay on KM12 was 2.93 µM (inactive); with M14, 4.45 µM (inactive); in the assay with MCF7, 3.8 µM (inactive); in the assay with MDA-MB-435, 2.79 µM (inactive); in the assay with Malme-3M, 0.902 µM (active); with NCI-H460, 2.82 µM (inactive). For the same compound, the GI50 is 2.86 µM (inactive) with OVCAR-3; 1.78 µM (inactive) with OVCAR-8; 16.1 µM (inactive) in the assay on SNB-19; > 100 µM (inactive) in the assay with SR; 1.47 µM (inactive) in the assay on T47D; 7.11 µM (inactive) with TK-10. Further, in the assay with UACC-62, the GI50 is 3.34 µM (inactive).
